Structures can show the parent of a compound that is named as a salt.
System: mice
Assay: SmartCube in vivo neuropharmacological behavioral assay
Settings: for minimal effective dose: Mus musculus, ip, 0.25 h, dose having 50% or more total activity in SmartCube, i.p., read-out: MED (minimal effective dose); for AD: antidepressant (percent probability) / AG: analgesic (percent probability) / AP: antipsychotic (percent probability) / AX: anxiolytic (percent probability) / CE: cognitive enhancer (percent probability) / HA: hallucinogenic (percent probability) / MS: mood stabilizer (percent probability) / PS (percent probability) / SD: sedative hypnotic (percent probability) / SE: side effects (percent probability) / UN: uncharacterized CNS activity (percent probability) / XG: anxiogenic (percent probability): SmartCube, i.p. 15 min before test, result at the MED
Procedure: The compounds were evaluated for their CNS related properties (e.g., the treatment, prevention or diagnosis of CNS or CNS-related disorders and/or amelioration of symptoms) using neuropharmacological screening methods described in S. L. Roberts et al., Front. Neurosci. 2011, 5:103 (hereinafter referred to as “Roberts,” the contents of which are incorporated herein by reference in their entirety).
According to Roberts, intact systems are useful in detecting improvement in disease-relevant endpoints, because psychiatric diseases generally result from disorders of cell-cell communication or circuitry. The endpoints are typically behavioral in nature, often requiring human observation and interpretation. In order to test multiple compounds for behavioral effects relevant to neurological and psychiatric diseases and disorders, PsychoGenics, Inc. (Paramus, N.J. “PGI”) developed SmartCube®, an automated system in which behaviors of compound-treated mice are captured by digital video and analyzed with computer algorithms to facilitate testing of multiple compounds for behavioral effects relevant to psychiatric disease. (D. Brunner et al., Drug Discov. Today 2002, 7:S107-S112; Alexandrov et al., Eur. J. Pharmacol. 2015, 753:127-134; the contents of each of which are incorporated herein by reference in their entirety).
The SmartCube® system is described in Example 2.2 of U.S. Pat. No. 9,758,529 and Example 289 of WIPO Publication No. WO2018/023070, the contents of each of which are incorporated herein by reference in their entirety.
According to the present disclosure, compounds identified may be evaluated using the SmartCube® system. The results of such analysis correlate certain patterns or combinations of behaviors to CNS effects along a percent probability scale of 0-100 where zero (0) reflects the limit of quantitation (LOQ).
The compounds of the present disclosure were evaluated for their CNS related properties (e.g., the treatment, prevention or diagnosis of CNS or CNS-related disorders and/or amelioration of symptoms) using neuropharmacological screening methods described in S. L. Roberts et al., Front. Neurosci. 2011, 5:103 (hereinafter referred to as “Roberts,” the contents of which are incorporated herein by reference in their entirety).
The SmartCube® system described herein was utilized to compare the behavioral signature of a test compound to a database of behavioral signatures obtained using a large set of diverse reference compounds (including but not limited to antipsychotics, anxiolytics, antidepressants and bipolar disorder medicine), thereby predicting the neuropharmacological effects of a test compound by similarity to major classes of compounds. It produces an activity signature indicating the probability that the activity of the test compound at the administered dose matches a given class of neuropharmacological agents. The test compound is simultaneously compared against multiple classes of agents; thus, a separate probability is generated for each behavioral effect measured (such as but not limited to anxiolytic activity and analgesic activity).
The compounds of the present disclosure were dissolved in a mixture of Pharmasolve™ (N-methyl-2-pyrrolidone (NMP)) and were injected i.p. 15 min. before the behavioral test. For each compound, injections were administered at different dose levels (e.g., 0.3, 1, 3, 10 and 30 mg per kg (mpk)). A compound's minimal effective dose (MED; see Table 3) is a measure of the compound's potency. The MED was defined as the dose (in mpk) having 50% or more total activity in SmartCube®. For each behavioral effect measured, results at the MED are presented. CNS activities of the compounds were recorded (see Table 2). In Table 1, a key to the percent probabilities (probability ×100) for each behavioral effect (“X”) are defined provided, where LOQ is the limit of quantification.

| SMILES | minimal effective dose [mg/kg] | AD: antidepressant (percent probability) | AG: analgesic (percent probability) | AP: antipsychotic (percent probability) | AX: anxiolytic (percent probability) | CE: cognitive enhancer (percent probability) | HA: hallucinogenic (percent probability) | MS: mood stabilizer (percent probability) | PS (percent probability) | SD: sedative hypnotic (percent probability) | SE: side effects (percent probability) | UN: uncharacterized CNS activity (percent probability) | XG: anxiogenic (percent probability) |
| --- | --- | --- | --- | --- | --- | --- | --- | --- | --- | --- | --- | --- | --- |
| CN1C2CCCC1c1ccccc12 [Compound 3, 12-Methyl-12-azatricyclo[6.3.1.0^2,7]dodeca-2,4,6-triene hydrochloride] | 10 to 30 | +++ (25% ≤ X < 50%) | ++ (5% ≤ X < 25%) | + (LOQ ≤ X < 5%) | ++ (5% ≤ X < 25%) | + (LOQ ≤ X < 5%) | + (LOQ ≤ X < 5%) | + (LOQ ≤ X < 5%) | + (LOQ ≤ X < 5%) | ++ (5% ≤ X < 25%) | ++ (5% ≤ X < 25%) | ++ (5% ≤ X < 25%) | + (LOQ ≤ X < 5%) |
| c1ccc2c(c1)CC(N1C3CCCC1c1ccccc13)C2 [Compound 11, 12-(2,3-Dihydro-1H-inden-2-yl)-12-azatricyclo[6.3.1.0^2,7]dodeca-2,4,6-triene hydrochloride] | 10 to 30 | + (LOQ ≤ X < 5%) | ++ (5% ≤ X < 25%) | + (LOQ ≤ X < 5%) | ++ (5% ≤ X < 25%) | ++ (5% ≤ X < 25%) | + (LOQ ≤ X < 5%) | + (LOQ ≤ X < 5%) | + (LOQ ≤ X < 5%) | + (LOQ ≤ X < 5%) | + (LOQ ≤ X < 5%) | +++ (25% ≤ X < 50%) | + (LOQ ≤ X < 5%) |
| CC(C)CN1C2CCCC1c1ccccc12 [Compound 8, 12-(2-Methylpropyl)-12-azatricyclo[6.3.1.0^2,7]dodeca-2,4,6-triene] | 10 to 30 | ++++ (50% ≤ X < 100%) | + (LOQ ≤ X < 5%) | + (LOQ ≤ X < 5%) | ++ (5% ≤ X < 25%) | + (LOQ ≤ X < 5%) | + (LOQ ≤ X < 5%) | + (LOQ ≤ X < 5%) | ++ (5% ≤ X < 25%) | + (LOQ ≤ X < 5%) | + (LOQ ≤ X < 5%) | + (LOQ ≤ X < 5%) | + (LOQ ≤ X < 5%) |
| CC1CC2c3ccccc3C(C1)N2C1CC1 (stereo not drawn) [Compound 38, 12-azatricyclo[6.3.1.0^2,7]dodeca-2,4,6-trien-10-yl}methylium hydrochloride] | 10 to 30 | ++++ (50% ≤ X < 100%) | + (LOQ ≤ X < 5%) | + (LOQ ≤ X < 5%) | + (LOQ ≤ X < 5%) | ++ (5% ≤ X < 25%) | ++ (5% ≤ X < 25%) | + (LOQ ≤ X < 5%) | + (LOQ ≤ X < 5%) | + (LOQ ≤ X < 5%) | + (LOQ ≤ X < 5%) | + (LOQ ≤ X < 5%) | + (LOQ ≤ X < 5%) |
| CCC(CC)N1C2CCCC1c1ccccc12 [Compound 17, 12-(Pentan-3-yl)-12-azatricyclo[6.3.1.0^2,7]dodeca-2,4,6-trienehydrochloride] | 10 to 30 | ++ (5% ≤ X < 25%) | + (LOQ ≤ X < 5%) | + (LOQ ≤ X < 5%) | ++ (5% ≤ X < 25%) | + (LOQ ≤ X < 5%) | + (LOQ ≤ X < 5%) | + (LOQ ≤ X < 5%) | ++++ (50% ≤ X < 100%) | + (LOQ ≤ X < 5%) | + (LOQ ≤ X < 5%) | + (LOQ ≤ X < 5%) | + (LOQ ≤ X < 5%) |
| CC1CC2NC(C1)c1ccccc12 (stereo not drawn) [Compound 29, 10-Methyl-12-azatricyclo[6.3.1.0^2,7]dodeca-2,4,6-triene hydrochloride] | 1 to 10 | ++ (5% ≤ X < 25%) | ++ (5% ≤ X < 25%) | + (LOQ ≤ X < 5%) | +++ (25% ≤ X < 50%) | + (LOQ ≤ X < 5%) | + (LOQ ≤ X < 5%) | + (LOQ ≤ X < 5%) | + (LOQ ≤ X < 5%) | + (LOQ ≤ X < 5%) | + (LOQ ≤ X < 5%) | + (LOQ ≤ X < 5%) | + (LOQ ≤ X < 5%) |
| CC(CF)N1C2CCCC1c1ccccc12 (stereo not drawn) [Compound 19, 12-(1-Fluoropropan-2-yl)-12-azatricyclo[6.3.1.0^2,7]dodeca-2,4,6-triene hydrochloride] | 10 to 30 | ++ (5% ≤ X < 25%) | + (LOQ ≤ X < 5%) | + (LOQ ≤ X < 5%) | ++++ (50% ≤ X < 100%) | + (LOQ ≤ X < 5%) | + (LOQ ≤ X < 5%) | + (LOQ ≤ X < 5%) | + (LOQ ≤ X < 5%) | + (LOQ ≤ X < 5%) | + (LOQ ≤ X < 5%) | + (LOQ ≤ X < 5%) | + (LOQ ≤ X < 5%) |
| Fc1cc2c(cc1F)C1CCCC2N1 [Compound 40, 4,5-Difluoro-12-azatricyclo[6.3.1.0^2,7]dodeca-2,4,6-triene hydrochloride] | > 30 | ++ (5% ≤ X < 25%) | ++ (5% ≤ X < 25%) | + (LOQ ≤ X < 5%) | ++ (5% ≤ X < 25%) | + (LOQ ≤ X < 5%) | + (LOQ ≤ X < 5%) | + (LOQ ≤ X < 5%) | ++ (5% ≤ X < 25%) | + (LOQ ≤ X < 5%) | + (LOQ ≤ X < 5%) | + (LOQ ≤ X < 5%) | + (LOQ ≤ X < 5%) |
| CC(C)N1C2CCCC1c1cc(F)c(F)cc12 [Compound 41, 4,5-Difluoro-12-(propan-2-yl)-12-azatricyclo[6.3.1.0^2,7]dodeca-2,4,6-triene] | 10 to 30 | ++ (5% ≤ X < 25%) | ++ (5% ≤ X < 25%) | ++ (5% ≤ X < 25%) | ++ (5% ≤ X < 25%) | ++ (5% ≤ X < 25%) | + (LOQ ≤ X < 5%) | + (LOQ ≤ X < 5%) | + (LOQ ≤ X < 5%) | + (LOQ ≤ X < 5%) | + (LOQ ≤ X < 5%) | +++ (25% ≤ X < 50%) | + (LOQ ≤ X < 5%) |

From patent US20230116114A1, “COMPOUNDS AND COMPOSITIONS FOR TREATING CNS DISORDERS” (Blue Oak Pharmaceuticals, Inc., priority 2020, published 2023)
